Test results from patent publication US20220235064A1 (WELLMARKER BIO CO., LTD., priority 2019, published 2022).

Tests used:
[1] = system: cancer cell line KM12C, in which RON is activated; test: Cell growth inhibitory ability in RON-activated cancer cell line (MTS); format: cell-based; conditions: Homo sapiens, 48 hours, absorbance 490 nm
Description: Experimental Example 2: Identification of Cell Growth Inhibitory Ability of Example Compounds in RON-Activated Cancer Cell Line
The cancer cell line KM12C (80015, KCLB, MEM+1K° FBS), in which RON is activated, was treated with each of the example compounds at a concentration of 10 μM, and then reaction was allowed to proceed for 48 hours. 24 hours after completion of the reaction, 20 μl of MTS solution (CellTiter 96 Aqueous One Solution Cell Proliferation Assay, product number: G3581, Promega) was added to each well, and then incubation was performed at a temperature of 37° C. in 50 CO2 incubator for 4 hours. Then, an IC50 value of the compound was derived by measuring its absorbance value at a wavelength of 490 nm using a Victor X5 plate reader. Here, as a positive control, N-(4-(2-amino-3-chloropyridin-4-yloxy)-3-fluorophenyl)-4-ethoxy-1-(4-fluorophenyl)-2-oxo-1,2-dihydropyridine-3-carboxamide, which is the compound of Example 1 in WO 2008/058229 A1, was used.

[2] = system: cancer cell line KM12C, in which RON is activated; test: Cell-killing efficacy in RON-activated cancer cell line (trypan blue); format: cell-based; conditions: Homo sapiens, 48 hours, trypan blue, n=2, read-out: Cell death (%) Cancer cell line KM12C
Description: Experimental Example 3: Measurement of Cell-Killing Efficacy of Example Compounds in RON-Activated Cancer Cell Line
The cancer cell line KM12C (80015, KCLB, MEM+10% FBS), in which RON is activated, was dispensed into each 60 mm^2 dish at 1×10^5 cells. After 24 hours, the dish was treated with each of the example compounds at a concentration of 1 μM or 5 μM while performing medium exchange, and then reaction was allowed to proceed for 48 hours. After 48 hours, centrifugation was performed for 4 minutes at 1,500 rpm to collect cells and cell fluid. Thereafter, living cells and dead cells were quantified (n=2) using a trypan blue solution (15250-061, Gibco), and statistical analysis was performed using Excel-T-test. Here, as a negative control, only a solvent (0.100 DMSO) was used; and as a positive control, N-(4-(2-amino-3-chloropyridin-4-yloxy)-3-fluorophenyl)-4-ethoxy-1-(4-fluorophenyl)-2-oxo-1,2-dihydropyridine-3-carboxamide, which is the compound of Example 1 in WO 2008/058229 A1, was used.

IC50 [1] [nM]	Compound	cytotoxicity at 1 µM [2] [%]	cytotoxicity at 5 µM [2] [%]
1	O=C(Nc1ccc(Oc2ccnc3cc(-c4ccc(CN5CCC(O)CC5)cn4)sc23)c(F)c1)c1c2c(cn(-c3ccc(F)cc3)c1=O)CCO2 [Example 29, N-(3-Fluoro-4-((2-(5-((4-hydroxypiperidin-1-yl)methyl)pyridin-2-yl)thieno[3,2-b]pyridin-7-yl)oxy)phenyl)-5-(4-fluorophenyl)-6-oxo-2,3,5,6-tetrahydrofuro[3,2-c]pyridine-7-carboxamide]	22.6	24.5
1	O=C(Nc1ccc(Oc2ccnc3cc(-c4ccc(CN5CCCC(O)C5)cn4)sc23)c(F)c1)c1c2c(cn(-c3ccc(F)cc3)c1=O)CCO2 (stereo not drawn) [Example 30, N-(3-Fluoro-4-((2-(5-((3-hydroxypiperidin-1-yl)methyl)pyridin-2-yl)thieno[3,2-b]pyridin-7-yl)oxy)phenyl)-5-(4-fluorophenyl)-6-oxo-2,3,5,6-tetrahydrofuro[3,2-c]pyridine-7-carboxamide]	24.8	25.9
6	COC1CCCN(Cc2ccc(-c3cc4nccc(Oc5ccc(NC(=O)c6c7c(cn(-c8ccc(F)cc8)c6=O)CCO7)cc5F)c4s3)nc2)C1 (stereo not drawn) [Example 32, N-(3-Fluoro-4-((2-(5-((3-methoxypiperidin-1-yl)methyl)pyridin-2-yl)thieno[3,2-b]pyridin-7-yl)oxy)phenyl)-5-(4-fluorophenyl)-6-oxo-2,3,5,6-tetrahydrofuro[3,2-c]pyridine-7-carboxamide]	13.5	20.4
3	O=C(Nc1ccc(Oc2ccnc3cc(-c4ccc(CN5CCC(F)CC5)cn4)sc23)c(F)c1)c1c2c(cn(-c3ccc(F)cc3)c1=O)CCO2 [Example 34, N-(3-Fluoro-4-((2-(5-((4-fluoropiperidin-1-yl)methyl)pyridin-2-yl)thieno[3,2-b]pyridin-7-yl)oxy)phenyl)-5-(4-fluorophenyl)-6-oxo-2,3,5,6-tetrahydrofuro[3,2-c]pyridine-7-carboxamide]	13.7	15.9
4	O=C(Nc1ccc(Oc2ccnc3cc(-c4ccc(CN5CCC(F)(F)CC5)cn4)sc23)c(F)c1)c1c2c(cn(-c3ccc(F)cc3)c1=O)CCO2 [Example 35, N-(4-((2-(5-((4,4-Difluoropiperidin-1-yl)methyl)pyridin-2-yl)thieno[3,2-b]pyridine-7-yl)oxy)-3-fluorophenyl)-5-(4-fluorophenyl)-6-oxo-2,3,5,6-tetrahydrofuro[3,2-c]pyridine-7-carboxamide]	19.6	28.1
5	CC1CCN(Cc2ccc(-c3cc4nccc(Oc5ccc(NC(=O)c6c7c(cn(-c8ccc(F)cc8)c6=O)CCO7)cc5F)c4s3)nc2)CC1 [Example 36, N-(3-Fluoro-4-((2-(5-((4-methylpiperidin-1-yl)methyl)pyridin-2-yl)thieno[3,2-b]pyridin-7-yl)oxy)phenyl)-5-(4-fluorophenyl)-6-oxo-2,3,5,6-tetrahydrofuro[3,2-c]pyridine-7-carboxamide]	17.1	30
3	COc1cc2c(Oc3ccc(NC(=O)c4c5c(cn(-c6ccc(F)cc6)c4=O)CCO5)cc3F)ccnc2cc1OCCCN1CC(C#N)C1 [Example 88, N-(4-((7-(3-(3-Cyanoazetidin-1-yl)propoxy)-6-methoxyquinolin-4-yl)oxy)-3-fluorophenyl)-5-(4-fluorophenyl)-6-oxo-2,3,5,6-tetrahydrofuro[3,2-c]pyridine-7-carboxamide]	18.8	24.7
50	COc1cc2c(Oc3ccc(NC(=O)c4c5c(cn(-c6ccc(F)cc6)c4=O)CCO5)cc3F)ccnc2cc1OCCCN1CCC(C)(O)C1 (stereo not drawn) [Example 91, N-(3-Fluoro-4-((7-(3-(3-hydroxy-3-methylpyrrolidin-1-yl)propoxy)-6-methoxyquinoline-4-yl)oxy)phenyl)-5-(4-fluorophenyl)-6-oxo-2,3,5,6-tetrahydrofuro[3,2-c]pyridine-7-carboxamide]	12.7	14.3
